Target: T1, PBP3 from Acinetobacter baumannii (ATCC 19606) (Acinetobacter baumannii, UniProt A0ABX6CK25)
T1 sequence (A0ABX6CK25 64-610): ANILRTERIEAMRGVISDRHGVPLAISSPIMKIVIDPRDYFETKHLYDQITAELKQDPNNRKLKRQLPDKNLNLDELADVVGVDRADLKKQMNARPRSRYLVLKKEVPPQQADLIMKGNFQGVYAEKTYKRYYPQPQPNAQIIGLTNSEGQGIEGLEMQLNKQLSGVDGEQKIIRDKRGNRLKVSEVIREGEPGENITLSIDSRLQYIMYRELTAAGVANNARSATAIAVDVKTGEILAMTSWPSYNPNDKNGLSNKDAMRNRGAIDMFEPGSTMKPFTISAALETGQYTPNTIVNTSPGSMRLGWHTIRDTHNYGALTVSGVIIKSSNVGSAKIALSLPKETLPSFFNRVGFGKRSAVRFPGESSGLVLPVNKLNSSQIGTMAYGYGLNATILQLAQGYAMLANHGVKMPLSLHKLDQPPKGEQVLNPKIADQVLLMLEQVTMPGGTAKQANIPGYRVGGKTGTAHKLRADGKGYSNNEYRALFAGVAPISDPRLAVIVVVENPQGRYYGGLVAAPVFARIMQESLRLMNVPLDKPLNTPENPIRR
Assay: Bocillin-FL fluorescence polarization competition binding, A. baumannii PBP3
Details: fluorescence polarization competition binding assay using Bocillin-FL; read-out: A. baumannii PBP3 Potency
Summary of the method: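 Purified PBP was preincubated with inhibitor (E. coli PBP3 1.5 μM, 30 min; P. aeruginosa PBP3 0.75 μM, A. baumannii PBP3 0.2 μM and PBP1a 1 μM, 15 min), then Bocillin-FL (0.1 μM; 0.05 μM for PBP1a) added and FP read up to 60 min. EC50 = 50% loss of bound probe.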

SMILES: O=C(CN1CCN(C(=O)NC(C(=O)N[C@H]2Cc3ccc(F)c(C(=O)O)c3OB2O)c2cc(F)c(O)c(O)c2Cl)C(=O)C1=O)Nc1cccc(O)c1 (stereo partly drawn) [Example 231, (3R)-3-(2-(2-chloro-5-fluoro-3,4-dihydroxyphenyl)-2-(4-(2-((3-hydroxyphenyl)amino)-2-oxoethyl)-2,3-dioxopiperazine-1-carboxamido)acetamido)-7-fluoro-2-hydroxy-3,4-dihydro-2H-benzo[e][1,2]oxaborinine-8-carboxylic acid]
- IC50: < 10 µM

SMILES: O=C(CN1CCN(C(=O)NC(C(=O)N[C@H]2Cc3ccc(F)c(C(=O)O)c3OB2O)c2cc(F)c(O)c(O)c2Cl)C(=O)C1=O)Nc1ccccc1 (stereo partly drawn) [Example 232, (3R)-3-(2-(2-chloro-5-fluoro-3,4-dihydroxyphenyl)-2-(2,3-dioxo-4-(2-oxo-2-(phenylamino)ethyl)piperazine-1-carboxamido)acetamido)-7-fluoro-2-hydroxy-3,4-dihydro-2H-benzo[e][1,2]oxaborinine-8-carboxylic acid]
- IC50: < 10 µM

SMILES: O=C(CN1CCN(C(=O)NC(C(=O)N[C@H]2Cc3ccc(F)c(C(=O)O)c3OB2O)c2cc(F)c(O)c(O)c2Cl)C(=O)C1=O)Nc1ccncc1 (stereo partly drawn) [Example 233, (3R)-3-(2-(2-chloro-5-fluoro-3,4-dihydroxyphenyl)-2-(2,3-dioxo-4-(2-oxo-2-(pyridin-4-ylamino)ethyl)piperazine-1-carboxamido)acetamido)-7-fluoro-2-hydroxy-3,4-dihydro-2H-benzo[e][1,2]oxaborinine-8-carboxylic acid]
- IC50: < 10 µM

SMILES: O=C(CN1CCN(C(=O)NC(C(=O)N[C@H]2Cc3ccc(F)c(C(=O)O)c3OB2O)c2cc(F)c(O)c(O)c2Cl)C(=O)C1=O)Nc1cccnc1 (stereo partly drawn) [Example 234, (3R)-3-(2-(2-chloro-5-fluoro-3,4-dihydroxyphenyl)-2-(2,3-dioxo-4-(2-oxo-2-(pyridin-3-ylamino)ethyl)piperazine-1-carboxamido)acetamido)-7-fluoro-2-hydroxy-3,4-dihydro-2H-benzo[e][1,2]oxaborinine-8-carboxylic acid]
- IC50: < 10 µM

SMILES: O=C(CN1CCN(C(=O)NC(C(=O)N[C@H]2Cc3ccc(F)c(C(=O)O)c3OB2O)c2cc(F)c(O)c(O)c2Cl)C(=O)C1=O)Nc1nccs1 (stereo partly drawn) [Example 235, (3R)-3-(2-(2-chloro-5-fluoro-3,4-dihydroxyphenyl)-2-(2,3-dioxo-4-(2-oxo-2-(thiazol-2-ylamino)ethyl)piperazine-1-carboxamido)acetamido)-7-fluoro-2-hydroxy-3,4-dihydro-2H-benzo[e][1,2]oxaborinine-8-carboxylic acid]
- IC50: < 10 µM

SMILES: O=C(CN1CCN(C(=O)NC(C(=O)N[C@H]2Cc3ccc(F)c(C(=O)O)c3OB2O)c2cc(F)c(O)c(O)c2Cl)C(=O)C1=O)NCc1ccc(O)cc1 (stereo partly drawn) [Example 236, (3R)-3-(2-(2-chloro-5-fluoro-3,4-dihydroxyphenyl)-2-(4-(2-((4-hydroxybenzyl)amino)-2-oxoethyl)-2,3-dioxopiperazine-1-carboxamido)acetamido)-7-fluoro-2-hydroxy-3,4-dihydro-2H-benzo[e][1,2]oxaborinine-8-carboxylic acid]
- IC50: < 10 µM

SMILES: O=C(CN1CCN(C(=O)NC(C(=O)N[C@H]2Cc3ccc(F)c(C(=O)O)c3OB2O)c2cc(F)c(O)c(O)c2Cl)C(=O)C1=O)NCc1cccc(O)c1 (stereo partly drawn) [Example 237, (3R)-3-(2-(2-chloro-5-fluoro-3,4-dihydroxyphenyl)-2-(4-(2-((3-hydroxybenzyl)amino)-2-oxoethyl)-2,3-dioxopiperazine-1-carboxamido)acetamido)-7-fluoro-2-hydroxy-3,4-dihydro-2H-benzo[e][1,2]oxaborinine-8-carboxylic acid]
- IC50: < 10 µM

SMILES: O=C(CN1CCN(C(=O)NC(C(=O)N[C@H]2Cc3ccc(F)c(C(=O)O)c3OB2O)c2cc(F)c(O)c(O)c2Cl)C(=O)C1=O)NCc1ccccc1 (stereo partly drawn) [Example 238]
- IC50: < 10 µM

SMILES: O=C(CN1CCN(C(=O)N[C@@H](C(=O)N[C@H]2Cc3ccc(F)c(C(=O)O)c3OB2O)c2cc(F)c(O)c(O)c2Cl)C(=O)C1=O)NCc1ccncc1 [Example 239, (R)-3-((R)-2-(2-chloro-5-fluoro-3,4-dihydroxyphenyl)-2-(2,3-dioxo-4-(2-oxo-2-((pyridin-4-ylmethyl)amino)ethyl)piperazine-1-carboxamido)acetamido)-7-fluoro-2-hydroxy-3,4-dihydro-2H-benzo[e][1,2]oxaborinine-8-carboxylic acid]
- IC50: < 10 µM

SMILES: O=C(CN1CCN(C(=O)NC(C(=O)N[C@H]2Cc3ccc(F)c(C(=O)O)c3OB2O)c2cc(F)c(O)c(O)c2Cl)C(=O)C1=O)NCc1cccnc1 (stereo partly drawn) [Example 240, (3R)-3-(2-(2-chloro-5-fluoro-3,4-dihydroxyphenyl)-2-(2,3-dioxo-4-(2-oxo-2-((pyridin-3-ylmethyl)amino)ethyl)piperazine-1-carboxamido)acetamido)-7-fluoro-2-hydroxy-3,4-dihydro-2H-benzo[e][1,2]oxaborinine-8-carboxylic acid]
- IC50: < 10 µM

SMILES: O=C(CN1CCN(C(=O)N[C@@H](C(=O)N[C@H]2Cc3ccc(F)c(C(=O)O)c3OB2O)c2cc(F)c(O)c(O)c2Cl)C(=O)C1=O)NCc1nccs1 [Example 241, (R)-3-((R)-2-(2-chloro-5-fluoro-3,4-dihydroxyphenyl)-2-(2,3-dioxo-4-(2-oxo-2-((thiazol-2-ylmethyl)amino)ethyl)piperazine-1-carboxamido)acetamido)-7-fluoro-2-hydroxy-3,4-dihydro-2H-benzo[e][1,2]oxaborinine-8-carboxylic acid]
- IC50: < 10 µM

SMILES: O=C(NCCN1CCN(C(=O)NC(C(=O)N[C@H]2Cc3ccc(F)c(C(=O)O)c3OB2O)c2cc(F)c(O)c(O)c2Cl)C1=O)c1ccccc1 (stereo partly drawn) [Example 242, (3R)-3-(2-(3-(2-benzamidoethyl)-2-oxoimidazolidine-1-carboxamido)-2-(2-chloro-5-fluoro-3,4-dihydroxyphenyl)acetamido)-7-fluoro-2-hydroxy-3,4-dihydro-2H-benzo[e][1,2]oxaborinine-8-carboxylic acid]
- IC50: < 10 µM

SMILES: O=C(NCCN1CCN(C(=O)NC(C(=O)N[C@H]2Cc3ccc(F)c(C(=O)O)c3OB2O)c2cc(F)c(O)c(O)c2Cl)C1=O)c1ccc(O)cc1 (stereo partly drawn) [Example 243, (3R)-3-(2-(2-chloro-5-fluoro-3,4-dihydroxyphenyl)-2-(3-(2-(4-hydroxybenzamido)ethyl)-2-oxoimidazolidine-1-carboxamido)acetamido)-7-fluoro-2-hydroxy-3,4-dihydro-2H-benzo[e][1,2]oxaborinine-8-carboxylic acid]
- IC50: < 10 µM

SMILES: O=C(NCCN1CCN(C(=O)NC(C(=O)N[C@H]2Cc3ccc(F)c(C(=O)O)c3OB2O)c2cc(F)c(O)c(O)c2Cl)C1=O)c1cccc(O)c1 (stereo partly drawn) [Example 244, (3R)-3-(2-(2-chloro-5-fluoro-3,4-dihydroxyphenyl)-2-(3-(2-(3-hydroxybenzamido)ethyl)-2-oxoimidazolidine-1-carboxamido)acetamido)-7-fluoro-2-hydroxy-3,4-dihydro-2H-benzo[e][1,2]oxaborinine-8-carboxylic acid]
- IC50: < 10 µM

SMILES: O=C(NCCN1CCN(C(=O)NC(C(=O)N[C@H]2Cc3ccc(F)c(C(=O)O)c3OB2O)c2cc(F)c(O)c(O)c2Cl)C1=O)c1ccncc1 (stereo partly drawn) [Example 245, (3R)-3-(2-(2-chloro-5-fluoro-3,4-dihydroxyphenyl)-2-(3-(2-(isonicotinamido)ethyl)-2-oxoimidazolidine-1-carboxamido)acetamido)-7-fluoro-2-hydroxy-3,4-dihydro-2H-benzo[e][1,2]oxaborinine-8-carboxylic acid]
- IC50: < 10 µM

SMILES: O=C(NCCN1CCN(C(=O)NC(C(=O)N[C@H]2Cc3ccc(F)c(C(=O)O)c3OB2O)c2cc(F)c(O)c(O)c2Cl)C1=O)c1cccnc1 (stereo partly drawn) [Example 246, (3R)-3-(2-(2-chloro-5-fluoro-3,4-dihydroxyphenyl)-2-(3-(2-(nicotinamido)ethyl)-2-oxoimidazolidine-1-carboxamido)acetamido)-7-fluoro-2-hydroxy-3,4-dihydro-2H-benzo[e][1,2]oxaborinine-8-carboxylic acid]
- IC50: < 10 µM

SMILES: O=C(NCCN1CCN(C(=O)NC(C(=O)N[C@H]2Cc3ccc(F)c(C(=O)O)c3OB2O)c2cc(F)c(O)c(O)c2Cl)C1=O)c1nccs1 (stereo partly drawn) [Example 247, (3R)-3-(2-(2-chloro-5-fluoro-3,4-dihydroxyphenyl)-2-(2-oxo-3-(2-(thiazole-2-carboxamido)ethyl)imidazolidine-1-carboxamido)acetamido)-7-fluoro-2-hydroxy-3,4-dihydro-2H-benzo[e][1,2]oxaborinine-8-carboxylic acid]
- IC50: < 10 µM

SMILES: O=C(O)c1c(F)ccc2c1OB(O)[C@@H](NC(=O)C(NC(=O)N1CCN(CCNC(=O)[C@@H]3CCCN3)C1=O)c1cc(F)c(O)c(O)c1Cl)C2 (stereo partly drawn) [Example 248, (3R)-3-(2-(2-chloro-5-fluoro-3,4-dihydroxyphenyl)-2-(2-oxo-3-(2-((S)-pyrrolidine-2-carboxamido)ethyl)imidazolidine-1-carboxamido)acetamido)-7-fluoro-2-hydroxy-3,4-dihydro-2H-benzo[e][1,2]oxaborinine-8-carboxylic acid]
- IC50: < 10 µM

— patent US20240270762A1, “PENICILLIN-BINDING PROTEIN INHIBITORS” (priority 2021, published 2024)
